This note sets out measurements from patent US20130317029A1 (PORTOLA PHARMACEUTICALS, INC., priority 2010, published 2013).

The test concerns the target T1, full length active recombinant SYK enzyme (Homo sapiens, UniProt P43405).
T1 construct: full length active recombinant SYK enzyme (Millipore, Calif.); purchased Millipore
Briefly: Inhibition of Syk tyrosine phosphorylation activity (LANCE TR-FRET kinase assay). It counts as biochemical. From the text:
This example illustrates methods for evaluating the compounds of the invention, along with results obtained for such assays. The in vitro and in vivo human Syk activities of the inventive compounds can be determined by various procedures known in the art, such as a test for their ability to inhibit the activity of human plasma Syk. […] The IC50 value is the concentration (in nM) of the compound required to provide 50% inhibition of human Syk proteolytic activity.
Potency of candidate molecules for inhibiting Syk tyrosine phosphorylation activity is assessed by measuring the ability of a test compound to inhibit Syk-mediated tyrosine phosphorylation of a Syk-specific substrate.
SYK tyrosine phosphorylation activity is measured using the LANCE™ Technology developed by Perkin Elmer Life and Analytical Sciences (Boston, Mass.). LANCE™ refers to homogeneous time resolved fluorometry applications using techniques such as time-resolved fluorescence resonance energy transfer assay (TR-FRET) (see generally for procedures in Perkin Elmer Application Note—How to Optimize a Tyrosine Kinase Assay Using Time Resolved Fluorescence-Based LANCE Detection, wwww.perkinelmer.com/lifesciences). The assay principle involves detection of a phosphorylated substrate using energy transfer from a phosphospecific europium-labeled antibody to streptavidin-allophycocyanin as an acceptor.
To test the ability of candidate molecules to inhibit SYK tyrosine phosphorylation activity, molecules are reconstituted in 30% DMSO and serially diluted 1:3 with the final dilution containing DMSO in the absence of the candidate molecule. The final DMSO concentration in the assay is 3%. Kinase assays are performed as a two part reaction. The first reaction is a kinase reaction and which comprises of a candidate molecule, full length active recombinant SYK enzyme (Millipore, Calif.) and biotin-labeled SYK-specific substrate biotin-[…]-OH. The second reaction involves termination of the kinase reaction and the simultaneous addition of the detection reagents-europium-labeled anti-phosphotyrosine reagent (Eu-W1024-PY100, Perkin Elmer, Boston, Mass.) and Streptavidin-Allophycocyanin detection reagent (SA-APC, Prozyme, Calif.). The kinase reaction is performed in a black U-bottom 96-well microtitre plate. The final reaction volume is 50 μL and contains a final concentration of 1 nM active SYK enzyme, 550 nM SYK-substrate, and 100 μM ATP diluted in a buffer containing 50 mM Tris pH 7.5, 5 mM MgCl2, and 1 mM DTT. The reaction is allowed to proceed for 1 hour at room temperature. The quench buffer contains 100 mM Tris pH 7.5, 300 mM NaCl2, 20 mM EDTA, 0.02% Brij35, and 0.5% BSA. The detection reagents are added to the reaction mixture at the following dilutions-1:500 for Eu-W1024-PY100 and 1:250 for SA-APC. The kinase reaction is terminated by the addition of 50 μL quench buffer containing the detection reagents. The detection is allowed to proceed for 1 hr at room temperature. Detection of the phosphorlated substrate in the absence and presence of inhibitors is measured in the TR-FRET instrument, Analyst HT (Molecular Probes, Sunnyvale, Calif.) and the condition for measurements are set up using CriterionHost Release 2.0 (Molecular Probes, Sunnyvale, Calif.). The settings used are a follows: excitation 360 nm, emission 665-7.5 nm, beam splitter 350 nm 50/50, flash 100 pulses, delay 60 us, integration 400 us, z-height 2 mm. Inhibition of SYK-tyrosine kinase activity is calculated as the maximum response observed in the presence of inhibitor, compared to that in the absence of inhibitor. IC50s were derived by non-linear regression analysis.
On to `COc1nc(N[C@@H](C(N)=O)C(C)C)nc(Nc2cc(C)cc(C)c2)c1C(N)=O` [Example 1, (R)-2-(1-amino-3-methyl-1-oxobutan-2-ylamino)-4-(3,5-dimethylphenylamino)-6-methoxypyrimidine-5-carboxamide], for which the IC50 lay within 0.01 to 0.1 µM.

Take `Cc1cc(C)cc(Nc2nc(N[C@@H](C(N)=O)C(C)C)[nH]c(=O)c2C(N)=O)c1` [Example 2, (R)-2-(1-amino-3-methyl-1-oxobutan-2-ylamino)-4-(3,5-dimethylphenylamino)-6-oxo-1,6-dihydropyrimidine-5-carboxamide]: the IC50 lay within 0.001 to 0.01 µM.

In the case of `COc1nc(N[C@@H]2CCCC[C@@H]2N)nc(Nc2cccc(-n3nccn3)c2)c1C(N)=O` [Example 3, 2-((1R,2S)-2-aminocyclohexylamino)-4-(3-(2H-1,2,3-triazol-2-yl)phenylamino)-6-methoxypyrimidine-5-carboxamide], the IC50 is 0.01 to 0.1 µM.

As for `CCOc1nc(N[C@@H](C(N)=O)C(C)C)nc(Nc2cc(C)cc(C)c2)c1C(N)=O` [Example 4, (R)-2-(1-amino-3-methyl-1-oxobutan-2-ylamino)-4-(3,5-dimethylphenylamino)-6-ethoxypyrimidine-5-carboxamide], the IC50 lay within 0.1 to 1 µM.

`NC(=O)c1c(Nc2cccc(-n3nccn3)c2)nc(N[C@@H]2CCCC[C@@H]2N)[nH]c1=O` [Example 5]: the IC50 fell in the range of 0.001 to 0.01 µM.

For `CC(C)[C@@H](Nc1nc(Nc2cccc(-n3nccn3)c2)c(C(N)=O)c(=O)[nH]1)C(N)=O` [Example 6, (R)-4-(3-(2H-1,2,3-triazol-2-yl)phenylamino)-2-(1-amino-3-methyl-1-oxobutan-2-ylamino)-6-oxo-1,6-dihydropyrimidine-5-carboxamide], the half-inhibitory concentration (IC50) was in the range of 0.001 to 0.01 µM.

With `CC(C)C[C@@H](Nc1nc(Nc2cccc(-n3nccn3)c2)c(C(N)=O)c(=O)[nH]1)C(N)=O` [Example 7, (R)-4-(3-(2H-1,2,3-triazol-2-yl)phenylamino)-2-(1-amino-4-methyl-1-oxopentan-2-ylamino)-6-oxo-1,6-dihydropyrimidine-5-carboxamide], the IC50 lay in the range of 0.01 to 0.1 µM.

`CC[C@@H](Nc1nc(Nc2cccc(-n3nccn3)c2)c(C(N)=O)c(=O)[nH]1)C(N)=O` [Example 8, (R)-4-(3-(2H-1,2,3-triazol-2-yl)phenylamino)-2-(1-amino-1-oxobutan-2-ylamino)-6-oxo-1,6-dihydropyrimidine-5-carboxamide]: the IC50 lay in the range of 0.01 to 0.1 µM.

As to `Cc1cccc(Nc2nc(N[C@H](CC(C)C)C(N)=O)[nH]c(=O)c2C(N)=O)c1` [Example 9, (R)-2-(1-amino-4-methyl-1-oxopentan-2-ylamino)-6-oxo-4-(m-tolylamino)-1,6-dihydropyrimidine-5-carboxamide], the IC50 was 0.001 to 0.01 µM.

In the case of `Cc1cccc(Nc2nc(N[C@@H](C(N)=O)C(C)C)[nH]c(=O)c2C(N)=O)c1` [Example 10, (R)-2-(1-amino-3-methyl-1-oxobutan-2-ylamino)-6-oxo-4-(m-tolylamino)-1,6-dihydropyrimidine-5-carboxamide], the concentration for half-maximal inhibition (IC50) fell in the range of 0.001 to 0.01 µM.

For the compound `CC[C@@H](Nc1nc(Nc2cccc(C)c2)c(C(N)=O)c(=O)[nH]1)C(N)=O` [Example 11, (R)-2-(1-amino-1-oxobutan-2-ylamino)-6-oxo-4-(m-tolylamino)-1,6-dihydropyrimidine-5-carboxamide], the IC50 is 0.001 to 0.01 µM.

As to `Cc1cc(C)cc(Nc2nc(N[C@@H](CN)C(C)C)[nH]c(=O)c2C(N)=O)c1` [Example 12, (R)-2-(1-amino-3-methylbutan-2-ylamino)-4-(3,5-dimethylphenylamino)-6-oxo-1,6-dihydropyrimidine-5-carboxamide], the IC50 lay within 0.001 to 0.01 µM.

In the case of `CC(C)C[C@@H](Nc1nc(Nc2ccc3ncccc3c2)c(C(N)=O)c(=O)[nH]1)C(N)=O` [Example 13, (R)-2-(1-amino-4-methyl-1-oxopentan-2-ylamino)-6-oxo-4-(quinolin-6-ylamino)-1,6-dihydropyrimidine-5-carboxamide], the IC50 was < 0.001 µM.

In the case of `CNCCNc1nc(Nc2cccc(C)c2)c(C(N)=O)c(=O)[nH]1` [Example 14], the half-maximal inhibitory concentration (IC50) was 0.01 to 0.1 µM.
